Measured values: paper PMC8374946 (European journal of pharmacology, 2021)

Key:
[1] = system: nontransfected HEK293T cells; assay: Ca2+ fluorescent assay in nontransfected HEK293T cells; format: cell-based; conditions: 10 µM for XLR-11, UR-144, AM1220
human TRPV1 channel = human TRPV1 channel (Homo sapiens, UniProt Q8NER1); assay: TRPV1 channel Ca2+ fluorescent; format: cell-based; conditions: for TRPV1 channel Ca2+ signal Emax: normalized to signal with 1 µM capsaicin, HEK293T-TRPV1 cells
TRPV1 channels = conditions: read-out: EC50 for TRPV1 channel activation; ref Soethoudt et al., 2017; cited from earlier work
[2] = target: human cannabinoid type-1 (CB1) receptor (Homo sapiens, UniProt P21554); format: cell-based
human cannabinoid type-1 (CB1) receptor, sequence (P21554 whole entry): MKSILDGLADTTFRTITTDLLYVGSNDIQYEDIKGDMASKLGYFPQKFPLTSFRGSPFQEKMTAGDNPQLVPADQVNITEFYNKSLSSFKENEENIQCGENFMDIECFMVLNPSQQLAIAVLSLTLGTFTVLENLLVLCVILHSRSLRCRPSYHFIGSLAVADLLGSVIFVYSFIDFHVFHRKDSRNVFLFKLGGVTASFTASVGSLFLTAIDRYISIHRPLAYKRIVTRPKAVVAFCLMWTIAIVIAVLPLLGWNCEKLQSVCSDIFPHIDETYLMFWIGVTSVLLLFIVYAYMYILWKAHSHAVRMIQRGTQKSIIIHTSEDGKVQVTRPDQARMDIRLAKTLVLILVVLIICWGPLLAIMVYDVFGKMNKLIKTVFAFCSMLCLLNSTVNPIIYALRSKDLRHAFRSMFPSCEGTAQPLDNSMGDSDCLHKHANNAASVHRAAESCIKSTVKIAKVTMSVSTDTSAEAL

human TRPV1 channel, sequence (Q8NER1 whole entry): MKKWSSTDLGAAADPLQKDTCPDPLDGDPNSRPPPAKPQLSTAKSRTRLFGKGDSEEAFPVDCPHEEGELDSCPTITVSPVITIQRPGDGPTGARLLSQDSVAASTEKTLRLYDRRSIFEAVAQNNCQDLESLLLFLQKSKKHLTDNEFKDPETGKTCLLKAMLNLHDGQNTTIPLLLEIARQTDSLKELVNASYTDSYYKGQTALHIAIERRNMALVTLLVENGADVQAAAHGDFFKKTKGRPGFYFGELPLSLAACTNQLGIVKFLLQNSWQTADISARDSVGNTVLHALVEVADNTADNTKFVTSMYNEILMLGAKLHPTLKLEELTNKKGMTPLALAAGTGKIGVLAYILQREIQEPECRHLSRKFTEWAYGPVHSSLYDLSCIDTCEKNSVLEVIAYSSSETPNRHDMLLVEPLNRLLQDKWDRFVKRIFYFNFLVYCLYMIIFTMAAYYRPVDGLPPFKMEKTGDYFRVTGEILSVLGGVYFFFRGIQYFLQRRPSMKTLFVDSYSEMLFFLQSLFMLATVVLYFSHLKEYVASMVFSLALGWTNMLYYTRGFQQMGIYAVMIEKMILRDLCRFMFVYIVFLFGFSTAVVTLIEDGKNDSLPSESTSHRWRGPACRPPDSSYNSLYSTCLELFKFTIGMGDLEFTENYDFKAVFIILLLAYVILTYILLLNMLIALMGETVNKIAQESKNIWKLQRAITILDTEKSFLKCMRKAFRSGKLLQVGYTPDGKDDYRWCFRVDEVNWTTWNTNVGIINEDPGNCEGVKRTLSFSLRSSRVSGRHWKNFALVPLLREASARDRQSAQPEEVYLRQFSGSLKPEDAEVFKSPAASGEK

Row | SMILES | Ca2+ transients in nontransfected HEK293T cells [1] | TRPV1 channel Ca2+ signal Emax (human TRPV1 channel) | EC50 (human TRPV1 channel) [nM] | EC50 (TRPV1 channels) [µM] | CB1 receptor-mediated activation of the GIRK channels [2]
1 | CC1(C)C(C(=O)c2cn(CCCCCF)c3ccccc23)C1(C)C [XLR-11] | not observed | 0.39 |  |  | 
2 | CN1CCCCC1Cn1cc(C(=O)c2cccc3ccccc23)c2ccccc21 (stereo not drawn) [AM1220] | not observed | 0.26 |  |  | 
3 | CCCCCn1cc(C(=O)C2C(C)(C)C2(C)C)c2ccccc21 [UR-144] | not observed | 0.23 |  |  | 
4 | CCCCC/C=C\C/C=C\C/C=C\C/C=C\CCCC(=O)NCCO [AEA, N-arachidonoylethanolamine] | not observed | 0.35 | 2100 |  | 
5 | COc1cc(CNC(=O)CCCC/C=C/C(C)C)ccc1O [capsaicin] | not observed |  |  |  | 
6 | CCCC(C)(C)c1ccc2c(c1)OC(C)(C)[C@@H]1CC=C(C)C[C@@H]21 [JWH-133] |  |  |  | 8.2 | no CB1 receptor-mediated activation
